Values of other authors in paper PMC4257705 (Organic letters, 2009).

Biological target: αVβ3
Settings: tripeptide sequence Arg-Gly-Asp (RGD)

With Arg-Gly-Asp [RGD] as the substance, how does the Kd read?
The Kd was roughly 1 nM.
